# Measured values reported in publication PMC3923439, “Anti-inflammatory properties of a novel peptide interleukin 1 receptor antagonist” (Journal of Neuroinflammation, 2014).
# Positions of bridges follow the written chain, without caps; N, C: chain ends. Chains are numbered I, II in the order given. No end group written: not given here.
# Key:
# [1] = test system: collagen-induced arthritis; experiment: Collagen-induced arthritis in rats; format: in vivo; conditions: rat, 10 mg/kg s.c. daily dpi 8 to 15, dpi 10 to 16, P < 0.05
# Method: CIA was induced by bovine collagen type II (CII; Sigma-Aldrich) solubilized in 0.05 M acetic acid (2 mg/ml), then emulsified 1:1 with complete Freund’s adjuvant (CFA) (Sigma-Aldrich) that contained 1.0 mg/ml heat-inactivated Mycobacterium tuberculosis. While the animals were under inhalation anesthesia (3% isoflurane; Baxter, Allerød, Denmark), 250 μl of the emulsion that contained 250 μg of CII and 125 μg of M. tuberculosis were injected intradermally at the tail base (day postimmunization 0 (dpi 0)). […] An observer who was blinded to the treatment groups evaluated the severity of arthritis by employing the following grading system: 0 (no redness or swelling of the foot), 1 (slight redness in the foot or redness and swelling in single interphalangeal joints), 2 (moderate swelling and redness in the ankle and metatarsal part of the foot), 3 (marked swelling and redness of the entire foot, with restricted use of the foot during locomotion) and 4 (marked swelling and redness of the entire foot, with no use of the foot during locomotion). […] The differences in the area under the clinical score curve during the period of observation between the control and peptide-treated groups were calculated, with baseline defined as the start of treatment (that is, 0).
# [2] = test system: neonatal rat pancreatic islets; experiment: IL-1β-induced rat islet cell apoptosis (cell death detection ELISA); format: cell-based
# Method: Neonatal rat islets were isolated from 3- to 6-day-old outbred Wistar rats (Taconic, Ejby, Denmark) as previously described. Islets were precultured and maintained in RPMI 1640 medium (Gibco/Life Technologies) supplemented with 20 mmol/L HEPES buffer, 0.038% (wt/vol) NaHCO3, 100 U/ml penicillin, 100 µg/ml streptomycin and 10% (vol/vol) newborn calf serum (NCS) at 37°C in humidified atmospheric air. Prior to experimentation, the islets were randomly distributed to 24-well dishes and incubated for 2 hours in RPMI 1640 medium supplemented as described above, but with 0.5% (vol/vol) NCS relevant reagents were added as indicated.
# For cell death detection, rat islets were incubated with 150 pg/ml IL-1β (BD Pharmingen, San Diego, CA, USA) alone or in combination with various concentrations of Ana and Ilantide for 24 hours at 37°C in humidified atmospheric air. Rat islet cell death was assessed by cell death detection ELISA (Roche, Lund, Sweden) as previously described. As a surrogate measure of nitric oxide production, Griess reagent (1:1 aqueous mixture of 0.1% naphthylethylenediamine hydrochloride and 1% sulfanilamide + 5% H3PO4) was mixed in a 1:1 ratio with 100 μl of supernatant samples to determine the nitrite content in supernatants from the cell death assays described above.
# Figure 7 Effect of Ilantide on interleukin 1β-induced rat islet cell apoptosis. Rat pancreatic islets were preincubated for 30 minutes in the absence or presence of various concentrations of anakinra (A), Ilantide-m (B) or Ilantide-t (C) and then exposed to […] interleukin 1β (IL-1β) for 24 hours. Cytokine-induced apoptosis was determined by cell death detection enzyme-linked immunosorbent assay. Apoptosis rates are presented as fold induction compared with untreated control islets (white bars). The data from four independent experiments are presented as mean ± SEM. *P < 0.05 and **P < 0.01 compared with cultures treated with IL-1β alone (one-way analysis of variance followed by Dunnett’s post hoc test).
# [3] = Pharmacokinetics: plasma and CSF concentration by competitive ELISA; format: in vivo; conditions: rat, single s.c. 10 mg/kg, calculated
# Method: Biotinylated Ilantide-t (Schafer-N) was administered to adult male Wistar rats subcutaneously (s.c.) at a dose of 10 mg/kg. Twenty minutes, sixty minutes, one hundred forty minutes, five hours and thirty hours after peptide administration, blood samples (approximately 300 μl) were collected from the orbital plexus under fentanyl/droperidol/midazolam anesthesia (0.002%/0.14%/0.014% wt/vol) (Department of Experimental Medicine, University of Copenhagen, Denmark) in ethylenediaminetetraacetic acid–coated tubes (BD, Plymouth, UK), and 50 to 110 U/ml aprotinin (Calbiochem, San Diego, CA, USA) was added immediately to the collected blood. The samples were subsequently centrifuged at 1,500 × g for 15 minutes. Cerebrospinal fluid (CSF) was collected from the cisterna magna 30 minutes after peptide administration as described previously. Plasma and CSF samples were stored at -80°C.
# The concentrations of Ilantide-t in plasma and CSF samples were measured by performing a competitive ELISA on amino 96-well plates (Nunc). […] Color development was terminated by the addition of 2 M H2SO4 (100 μl/well), and absorbance was read at 450 nm on a Wallac Victor 1420 multilabel counter (PerkinElmer, Hvidovre, Denmark). Peptide concentrations in the samples were determined using a standard curve. […]
# [4] = test system: HEK-Blue IL-6 cells (STAT3); experiment: IL-6-induced STAT3 activation, SEAP reporter; format: cell-based; conditions: 1.2 pM IL-6, 24 hours, SEAP read at 600 nm
# Method: HEK-Blue IL-1β cells that contained an IL-1β-sensitive reporter (InvivoGen, San Diego, CA, USA) and HEK-Blue IL-6 cells that contained an IL-6-sensitive reporter (InvivoGen) were grown at 37°C with 5% CO2 in Dulbecco’s modified Eagle’s medium (DMEM) supplemented with 5% (vol/vol) fetal calf serum (FCS), 4.5 g/L glucose, 2 mM GlutaMAX medium, 100 U/ml penicillin, 100 μg/ml streptomycin (all obtained from Gibco BRL/Life Technologies, Taastrup, Denmark), 100 μg/ml zeocin, 200 μg/ml hygromycin and 100 μg/ml Normocin (all purchased from InvivoGen).
# HEK-Blue IL-6 cells were grown as described above. IL-6 cells allow the monitoring of the activation of the signal transducer and activator of transcription 3 (STAT3) pathway specifically in response to IL-6. They express a STAT3-inducible SEAP reporter gene. For the STAT3 activation assay, the cells were treated with 1.2 pM IL-6 alone or together with various concentrations of Ilantide. TNF-α (1.2 pM) was added as a control ligand for both the NF-κB and STAT3 assays. After 24-hour incubation at 37°C, 150 μl of HEK-Blue cell supernatant were added to each well of a 96-well plate together with 50 μl of QUANTI-Blue (InvivoGen), incubated at 37°C in the dark for 40 minutes and measured in an ELISA reader at 600 nm to determine the expression level of the secreted SEAP.
substance,measurement,setting,value
"I: SGRKSSKMQAKK-NH2 / II: SGRKSSKMQAK / III: SGRKSSKMQA / IV: SGRKSSKMQA (amide I:11-IV:C, I:12-II:C, II:11-III:C; C-terminus assumed) [Ilantide-t]","Severity of CIA (clinical score, area under the curve) versus vehicle",[1],significantly attenuated
same,Reduction of IL-1-induced apoptosis relative to the maximal effect of Ana,[2]; Ilantide-t in high molar excess,1.5 ×
same,Maximal inhibition of IL-1β-induced apoptosis,"[2]; rat islets, 30 minutes preincubation, 8.68 nM (150 pg/ml) IL-1β, 24 hours, four independent experiments",93%
same,Plasma half-life,[3],approximately 2 hours
same,Inhibition of STAT3 activation induced by IL-6,[4],did not inhibit
